Assay results from patent US12251383B2, “Methods and compositions for KRAS inhibitors” (The Board of Regents of the University of Texas System, priority 2019, dated 2025).
Entries after “also recorded” stand apart in the source; their conditions may differ.

How the values were obtained:
[1] = molecular target: KRAS-Raf^RBD interaction (Homo sapiens, UniProt P01116); test: Fluorescence polarization of BGTP-γ-S KRAS with GST-Raf RBD; type: binding
Method: FIGS. 2A-2C show representative data pertaining to the disruption of KRAS-Raf interaction by disclosed compound 11. (FIG. 2A) Fluorescence polarization of ^BGTP-γ-SKRAS (0.5 μM) as a function of a varying concentration of GST-Raf^RBD in the absence (red) and presence (blue) of 1 μM compound 11. Shown above the curves is the KD for KRAS-Raf^RBD binding obtained by fitting the data to
(§1) [formula] where P1 is polarization of free KRAS, P2 is polarization of Raf-bound KRAS, c is the total concentration of KRAS, and x the total concentration of Raf^RBD. (FIG. 2B) Amount of GFP-KRAS^G12D pulled down by GST-Raf^RBD after treatment of cell lysates with compound at the concentrations indicated (representative Westerns are shown at the top). The RBD sequence length was 1-149 and 51-131 in the fluorescence polarization and pull-down assays, respectively. (FIG. 2C) GFP fluorescence lifetime from FLIM-FRET using cells expressing GFP-KRAS^G12D alone or with RFP-Raf, with or without treatment by 1 μM compound 11. Data are shown as mean±S.E; significance estimated by one-way analysis of variance.
Fluorescence polarization. Fluorescence polarization assay was conducted following previous reports (48, 49). KRAS was pre-loaded with the non-hydrolyzable fluorescent GTP analog BODIPY-GTP-γ-S (BGTP-γ-S; Life Technologies) using buffer-exchange in NAP-5 (GE Life Sciences) as described in the previous section. Then 0.5 μM (50 μL) of ^BGTP-γ-SKRAS was incubated with an equal volume but varying concentrations (0 to 2.5 μM) of GST-Raf^RBD (Raf RBD residues 1-149; Life Technologies) for 30 min in the dark. To determine the effect of ligand on RAS-Raf binding, KRAS was first incubated with a fixed concentration of the ligand for 30 min and then with GST-Raf^RBD. Fluorescence polarization was measured using PolarStar Optima plate reader (excitation: 485 nm, emission: 520 nm) at room temperature. GST-tag was used to increase the weight of Raf^RBD for a greater polarization. The dissociation constant for KRAS-Raf binding was determined using a quadratic ligand binding equation (48).

[2] = molecular target: GDP-bound KRAS^WT (Homo sapiens, UniProt P01116); test: MST binding, GDP-bound KRAS WT; settings: GDP state
Source text: (§2) FIGS. 1A-1D show representative data for the predicted binding mode and measured affinity of disclosed compound 11 to KRAS. (FIG. 1A) Structure of the catalytic domain of KRAS used for the virtual screening. Lobe1 (residues 1-86) and lobe2 (residues 87-166) are highlighted in different colors, as well as switches 1 (residues 30-40) and 2 (residues 60-75). The location of the target allosteric pocket p1 is indicated. (FIG. 1B) Chemical structure of compound 11. (FIG. 1C) Predicted binding pose of compound 11, with the key residues that make polar or vdW contacts with the ligand labeled. (FIG. 1D) Microscale thermophoresis (MST) experiments indicating direct binding of compound 11 to KRAS, along with dissociation constants (KD) derived from the curves. Changes in fluorescence upon titration of […] KRAS with increasing concentration of compound are shown: KRAS^WT (red), KRAS^G12C (green), KRAS^G12D (purple) and KRAS^Q61M (blue), each bound to the non-hydrolyzable GTP analogue, guanylyl imidodiphosphate (GNP). The same experiments indicated no binding to GDP-bound KRAS^G12D and KRAS^WT as well as Rap1B, which was used as control. […]

[3] = molecular target: T1, KRAS^G12D-Raf^RBD interaction (Homo sapiens, UniProt P01116, G12D); test: Pull-down of GFP-KRAS G12D by GST-Raf RBD from cell lysates; type: binding
T1 construct: expressed in transfected cells; host or cells: BHK cells expressing GFP-RAS (lysate); GST-Raf RBD made in E. coli BL21 from a GEX plasmid
Source text: as §1
Pull-down. GFP-RAS with GST-tagged RAS binding domain (RBD) of cRaf^A85K (hereafter GST-Raf^RBD) pulled down to monitor RAS-Raf interaction. To prepare GST-Raf^RBD bound to agarose beads, bacteria (BL21) transfected with a previously cloned GEX plasmid were grown in selection media to OD levels of 0.5-1.0 before protein expression was initiated with IPTG (1:1000). After 4 h, the sample was centrifuged at 6000 rpm for 5 min at 4° C., the pellet was re-suspended with PBS containing 5 mM EGTA, 1% Triton X, PIC 1:50 and PMSF 1:100, and cells were lysed with cycles of freezing and thawing. The lysate was sonicated to breakup DNA, and pelleted. […]

[4] = molecular target: GDP-bound KRAS^G12D (Homo sapiens, UniProt P01116, G12D); test: MST binding, GDP-bound KRAS G12D; settings: GDP state
Source text: as §2

Cc1nn2c(N3CCN(CCO)CC3)cc(-c3ccccc3)nc2c1-c1ccccc1 [Compound 11, 2-[4-(8-methyl-3,9-diphenyl-2,6,7-triazabicyclo[4.3.0]nona-2,4,7,9-tetraen-5-yl)piperazin-1-yl]ethanol]
reduction of polarization (RAS-Raf interaction) ([1]; 1 μM compound, at 2 μM GST-Raf^RBD): > 80%
reduction of affinity of KRAS to Raf^RBD ([1]; 1 μM compound, from KD of polarization curves): ~13 fold
binding (in words) [2]: no binding; also recorded: does not bind
decrease in GFP-KRAS^G12D levels pulled down ([3]; at 1 μM): > 50%
binding (in words) [4]: no binding

Cc1cc(N2CCN(CCO)CC2)n2nc(C)c(-c3ccccc3)c2n1 [Compound 13]
effect on interaction of KRAS with GST-Raf^RBD ([1]; 20 μM compound): as effectively as the parent compound
binding (in words) [2]: does not bind
effect on KRAS^G12D-Raf^RBD interaction (pull-down) ([3]; 10 μM): disrupts
binding (in words) [4]: does not bind
